# The kinase profiling compilation of Christmann-Franck et al. (2016)
# Assays:
# Assay in all cases: radiometric filter-binding kinase assay, Kinase HotSpot
# Conditions in all cases: compound 0.5 µM; ATP 10 µM
# STK17A (human) = STK17A (human) (UniProt Q9UEE5)
# AURKA (human) = AURKA (human) (UniProt O14965)
# EPHA7 (human) = EPHA7 (human) (UniProt Q15375)
# NEK3 (human) = NEK3 (human) (UniProt P51956)
# MARK4 (human) = MARK4 (human) (UniProt Q96L34)
# MYLK2 (human) = MYLK2 (human) (UniProt Q9H1R3)
# SRPK3 (human) = SRPK3 (human) (UniProt Q9UPE1)
# EPHB1 (human) = EPHB1 (human) (UniProt P54762)
# STK16 (human) = STK16 (human) (UniProt O75716)
# PKN2 (human) = PKN2 (human) (UniProt Q16513)
# INSR (human) = INSR (human) (UniProt P06213)
# IKBKB (human) = IKBKB (human) (UniProt O14920)
# DMPK (human) = DMPK (human) (UniProt Q09013)
# DMPK (human), sequence (Q09013 whole entry, looked up): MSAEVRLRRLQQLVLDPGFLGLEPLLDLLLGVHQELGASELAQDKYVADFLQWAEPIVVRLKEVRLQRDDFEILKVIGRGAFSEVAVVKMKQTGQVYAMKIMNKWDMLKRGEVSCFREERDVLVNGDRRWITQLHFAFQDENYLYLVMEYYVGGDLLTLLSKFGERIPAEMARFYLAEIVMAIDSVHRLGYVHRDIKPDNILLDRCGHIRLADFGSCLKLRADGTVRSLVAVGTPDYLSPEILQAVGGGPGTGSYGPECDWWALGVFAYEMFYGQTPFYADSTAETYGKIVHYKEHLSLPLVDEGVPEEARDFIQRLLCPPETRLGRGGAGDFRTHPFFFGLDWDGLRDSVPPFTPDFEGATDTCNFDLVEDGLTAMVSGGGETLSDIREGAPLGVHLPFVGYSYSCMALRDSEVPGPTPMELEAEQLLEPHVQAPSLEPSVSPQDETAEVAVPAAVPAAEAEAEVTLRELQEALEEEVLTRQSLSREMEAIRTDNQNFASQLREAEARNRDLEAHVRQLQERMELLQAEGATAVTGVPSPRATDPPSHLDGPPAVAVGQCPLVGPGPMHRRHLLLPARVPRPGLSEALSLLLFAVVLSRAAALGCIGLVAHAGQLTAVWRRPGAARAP
# ADRBK1 (human) = ADRBK1 (human) (UniProt P25098)
# ADRBK1 (human), sequence (P25098 whole entry, looked up): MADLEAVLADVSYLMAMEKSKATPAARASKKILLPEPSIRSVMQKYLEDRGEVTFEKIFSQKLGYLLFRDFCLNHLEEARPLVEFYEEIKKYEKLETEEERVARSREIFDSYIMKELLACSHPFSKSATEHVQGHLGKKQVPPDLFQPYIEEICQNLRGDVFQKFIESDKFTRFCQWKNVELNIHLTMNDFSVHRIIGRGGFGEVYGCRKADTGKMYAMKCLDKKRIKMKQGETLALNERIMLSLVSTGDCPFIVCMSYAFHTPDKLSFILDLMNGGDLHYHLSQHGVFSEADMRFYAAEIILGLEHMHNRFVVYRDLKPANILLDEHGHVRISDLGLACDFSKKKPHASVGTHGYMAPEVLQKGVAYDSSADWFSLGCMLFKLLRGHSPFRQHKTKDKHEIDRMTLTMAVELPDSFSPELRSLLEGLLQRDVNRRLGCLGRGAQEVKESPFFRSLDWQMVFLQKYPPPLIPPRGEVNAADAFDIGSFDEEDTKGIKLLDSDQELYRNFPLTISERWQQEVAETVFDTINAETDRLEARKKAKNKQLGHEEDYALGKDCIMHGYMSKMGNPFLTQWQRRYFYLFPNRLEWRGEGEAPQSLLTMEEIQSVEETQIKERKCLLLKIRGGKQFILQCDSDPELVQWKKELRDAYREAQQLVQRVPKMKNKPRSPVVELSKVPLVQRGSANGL
# NEK11 (human) = NEK11 (human) (UniProt Q8NG66)
# BMX (human) = BMX (human) (UniProt P51813)
# CDK9 CCNK (human) = CDK9 CCNK (human) (UniProt O75909+P50750)
# EPHB3 (human) = EPHB3 (human) (UniProt P54753)
# PDGFRB (human) = PDGFRB (human) (UniProt P09619)
# DYRK1B (human) = DYRK1B (human) (UniProt Q9Y463)
# MAPK1 (human) = MAPK1 (human) (UniProt P28482)
# FER (human) = FER (human) (UniProt P16591)
# HIPK3 (human) = HIPK3 (human) (UniProt Q9H422)
# [1] = system: MKNK1 (human), Q9BUB5 [T385D; 165-205 del]
# CDK5 CDK5R1 p25 (human) = CDK5 CDK5R1 p25 (human) (UniProt Q00535+Q15078)
# CSNK1G3 (human) = CSNK1G3 (human) (UniProt Q9Y6M4)
# SGK3 (human) = SGK3 (human) (UniProt Q96BR1)
# OXSR1 (human) = OXSR1 (human) (UniProt O95747)
# YES1 (human) = YES1 (human) (UniProt P07947)
# ABL2 (human) = ABL2 (human) (UniProt P42684)
# DCLK2 (human) = DCLK2 (human) (UniProt Q8N568)
# MAP3K9 (human) = MAP3K9 (human) (UniProt P80192)
# ACVR1 (human) = ACVR1 (human) (UniProt Q04771)
# CLK1 (human) = CLK1 (human) (UniProt P49759)
# BRSK1 (human) = BRSK1 (human) (UniProt Q8TDC3)
# PRKD3 (human) = PRKD3 (human) (UniProt O94806)
# PRKD3 (human), sequence (O94806 whole entry, looked up): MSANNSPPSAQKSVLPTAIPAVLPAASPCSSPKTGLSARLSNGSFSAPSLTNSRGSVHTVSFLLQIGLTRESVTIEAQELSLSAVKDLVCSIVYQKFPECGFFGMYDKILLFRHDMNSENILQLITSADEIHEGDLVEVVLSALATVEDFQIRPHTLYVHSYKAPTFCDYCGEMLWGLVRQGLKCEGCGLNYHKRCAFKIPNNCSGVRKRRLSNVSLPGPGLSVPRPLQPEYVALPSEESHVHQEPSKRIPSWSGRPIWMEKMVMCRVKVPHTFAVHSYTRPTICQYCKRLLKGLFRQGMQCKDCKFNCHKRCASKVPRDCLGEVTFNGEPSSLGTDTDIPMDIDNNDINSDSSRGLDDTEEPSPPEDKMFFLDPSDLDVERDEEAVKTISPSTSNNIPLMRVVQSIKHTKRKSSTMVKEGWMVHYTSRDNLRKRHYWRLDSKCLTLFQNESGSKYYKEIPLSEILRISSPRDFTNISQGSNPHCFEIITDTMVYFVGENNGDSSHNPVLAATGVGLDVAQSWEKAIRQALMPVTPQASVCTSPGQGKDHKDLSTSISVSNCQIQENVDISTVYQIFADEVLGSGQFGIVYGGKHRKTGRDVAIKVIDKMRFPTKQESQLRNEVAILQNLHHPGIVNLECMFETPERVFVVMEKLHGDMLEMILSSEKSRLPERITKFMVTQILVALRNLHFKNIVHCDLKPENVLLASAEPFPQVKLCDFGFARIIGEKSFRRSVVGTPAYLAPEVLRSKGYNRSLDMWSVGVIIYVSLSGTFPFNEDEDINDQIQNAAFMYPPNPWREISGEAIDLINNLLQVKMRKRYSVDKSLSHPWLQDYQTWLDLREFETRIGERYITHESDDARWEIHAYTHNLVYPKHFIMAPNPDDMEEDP
# STK4 (human) = STK4 (human) (UniProt Q13043)
# SIK2 (human) = SIK2 (human) (UniProt Q9H0K1)
# SIK2 (human), sequence (Q9H0K1 whole entry, looked up): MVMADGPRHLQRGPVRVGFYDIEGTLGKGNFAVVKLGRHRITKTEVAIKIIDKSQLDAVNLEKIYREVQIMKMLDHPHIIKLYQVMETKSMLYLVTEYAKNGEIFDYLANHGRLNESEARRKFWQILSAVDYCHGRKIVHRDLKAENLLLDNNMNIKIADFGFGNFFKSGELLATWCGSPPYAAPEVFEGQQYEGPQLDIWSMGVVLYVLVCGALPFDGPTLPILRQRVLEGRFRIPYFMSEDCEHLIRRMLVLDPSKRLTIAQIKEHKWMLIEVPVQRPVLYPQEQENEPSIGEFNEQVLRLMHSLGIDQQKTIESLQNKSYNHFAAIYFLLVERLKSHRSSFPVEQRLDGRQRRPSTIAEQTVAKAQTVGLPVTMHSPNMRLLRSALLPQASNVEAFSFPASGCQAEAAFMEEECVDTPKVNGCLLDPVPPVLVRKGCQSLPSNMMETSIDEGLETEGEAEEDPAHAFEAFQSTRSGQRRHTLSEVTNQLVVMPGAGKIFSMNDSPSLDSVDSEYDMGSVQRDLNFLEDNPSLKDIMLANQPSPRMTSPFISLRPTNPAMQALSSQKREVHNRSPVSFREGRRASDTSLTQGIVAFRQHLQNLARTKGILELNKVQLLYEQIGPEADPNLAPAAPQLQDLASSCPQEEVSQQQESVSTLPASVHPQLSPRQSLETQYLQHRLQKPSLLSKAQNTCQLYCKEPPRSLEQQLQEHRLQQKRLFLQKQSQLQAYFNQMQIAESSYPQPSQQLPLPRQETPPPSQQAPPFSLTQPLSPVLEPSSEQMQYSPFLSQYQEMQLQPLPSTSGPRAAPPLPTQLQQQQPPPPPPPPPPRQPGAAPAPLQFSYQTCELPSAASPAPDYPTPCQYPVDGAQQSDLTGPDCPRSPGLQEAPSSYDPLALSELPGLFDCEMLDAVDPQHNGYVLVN
# PRKD2 (human) = PRKD2 (human) (UniProt Q9BZL6)
# MET (human) = MET (human) (UniProt P08581)
# MET (human), sequence (P08581 whole entry, looked up): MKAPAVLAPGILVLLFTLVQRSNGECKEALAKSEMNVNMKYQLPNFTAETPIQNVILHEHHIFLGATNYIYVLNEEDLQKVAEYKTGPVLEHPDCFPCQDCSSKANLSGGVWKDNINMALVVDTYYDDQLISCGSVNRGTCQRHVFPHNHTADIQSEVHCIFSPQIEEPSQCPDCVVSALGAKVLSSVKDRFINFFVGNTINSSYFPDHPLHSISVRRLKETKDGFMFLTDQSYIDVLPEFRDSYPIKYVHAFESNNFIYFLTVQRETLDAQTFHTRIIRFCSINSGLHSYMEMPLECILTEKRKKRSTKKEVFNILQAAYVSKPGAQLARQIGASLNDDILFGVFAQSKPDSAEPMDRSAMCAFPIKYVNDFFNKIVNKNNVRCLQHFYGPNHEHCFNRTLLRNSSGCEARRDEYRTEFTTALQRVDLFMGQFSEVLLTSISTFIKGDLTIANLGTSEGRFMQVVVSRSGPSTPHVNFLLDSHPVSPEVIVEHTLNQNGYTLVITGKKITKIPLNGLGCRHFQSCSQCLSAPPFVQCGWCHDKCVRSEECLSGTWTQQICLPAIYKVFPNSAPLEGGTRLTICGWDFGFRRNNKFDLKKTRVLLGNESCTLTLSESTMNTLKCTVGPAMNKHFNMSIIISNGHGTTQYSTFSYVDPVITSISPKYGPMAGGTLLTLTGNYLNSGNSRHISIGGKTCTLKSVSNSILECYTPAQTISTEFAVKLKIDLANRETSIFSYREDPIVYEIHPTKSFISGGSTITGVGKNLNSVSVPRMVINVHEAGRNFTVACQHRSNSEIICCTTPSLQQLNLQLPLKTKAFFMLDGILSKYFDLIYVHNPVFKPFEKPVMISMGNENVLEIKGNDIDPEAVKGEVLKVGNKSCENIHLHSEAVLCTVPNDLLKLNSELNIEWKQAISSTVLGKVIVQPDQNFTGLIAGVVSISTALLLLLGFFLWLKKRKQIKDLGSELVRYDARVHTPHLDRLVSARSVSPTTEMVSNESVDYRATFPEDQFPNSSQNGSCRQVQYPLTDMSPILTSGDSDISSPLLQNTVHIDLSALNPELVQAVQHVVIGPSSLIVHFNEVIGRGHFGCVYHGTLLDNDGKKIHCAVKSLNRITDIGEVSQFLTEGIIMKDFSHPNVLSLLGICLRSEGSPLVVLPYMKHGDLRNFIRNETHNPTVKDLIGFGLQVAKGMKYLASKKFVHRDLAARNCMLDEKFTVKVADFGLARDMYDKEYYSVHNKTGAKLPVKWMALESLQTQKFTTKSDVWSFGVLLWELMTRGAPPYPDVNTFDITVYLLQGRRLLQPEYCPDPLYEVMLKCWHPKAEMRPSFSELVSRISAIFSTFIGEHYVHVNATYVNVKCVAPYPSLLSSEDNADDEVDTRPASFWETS
# CDK5 CDK5R1 p35 (human) = CDK5 CDK5R1 p35 (human) (UniProt Q00535+Q15078)
# MAPK11 (human) = MAPK11 (human) (UniProt Q15759)
# MAPK11 (human), sequence (Q15759 whole entry, looked up): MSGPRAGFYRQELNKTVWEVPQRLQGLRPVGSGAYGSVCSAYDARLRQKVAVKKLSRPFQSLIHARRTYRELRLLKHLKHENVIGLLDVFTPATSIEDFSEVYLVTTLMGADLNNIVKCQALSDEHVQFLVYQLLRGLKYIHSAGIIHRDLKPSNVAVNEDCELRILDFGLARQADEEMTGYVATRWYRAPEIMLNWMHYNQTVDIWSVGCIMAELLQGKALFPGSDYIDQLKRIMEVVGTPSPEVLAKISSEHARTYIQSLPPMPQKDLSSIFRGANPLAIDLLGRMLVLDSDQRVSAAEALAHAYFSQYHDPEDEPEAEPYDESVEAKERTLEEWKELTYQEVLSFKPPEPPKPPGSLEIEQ
smiles,measurement,setting,value
Cc1cncc2cccc(S(=O)(=O)N3CCCN(C(=O)CN)C[C@H]3C)c12,residual activity,STK17A (human),93.5%
same,residual activity,AURKA (human),64.7%
same,residual activity,EPHA7 (human),90.7%
same,residual activity,NEK3 (human),91.1%
same,residual activity,MARK4 (human),95.7%
same,residual activity,MYLK2 (human),101%
same,residual activity,SRPK3 (human),99.9%
same,residual activity,EPHB1 (human),88.7%
same,residual activity,STK16 (human),97.9%
same,residual activity,PKN2 (human),74.7%
same,residual activity,INSR (human),88.9%
same,residual activity,IKBKB (human),109%
same,residual activity,DMPK (human),105%
same,residual activity,ADRBK1 (human),101%
same,residual activity,NEK11 (human),84.2%
same,residual activity,BMX (human),94%
same,residual activity,CDK9 CCNK (human),103%
same,residual activity,EPHB3 (human),99.6%
same,residual activity,PDGFRB (human),104%
same,residual activity,DYRK1B (human),101%
same,residual activity,MAPK1 (human),103%
same,residual activity,FER (human),66%
same,residual activity,HIPK3 (human),105%
same,residual activity,[1],90.5%
same,residual activity,CDK5 CDK5R1 p25 (human),94.1%
same,residual activity,CSNK1G3 (human),106%
same,residual activity,SGK3 (human),96%
same,residual activity,OXSR1 (human),99.4%
same,residual activity,YES1 (human),92%
same,residual activity,ABL2 (human),98.9%
same,residual activity,DCLK2 (human),89%
same,residual activity,MAP3K9 (human),94.4%
same,residual activity,ACVR1 (human),95.8%
same,residual activity,CLK1 (human),104%
same,residual activity,BRSK1 (human),94.2%
same,residual activity,PRKD3 (human),85.4%
same,residual activity,STK4 (human),95.4%
same,residual activity,SIK2 (human),89.4%
same,residual activity,PRKD2 (human),96%
same,residual activity,MET (human),104%
same,residual activity,CDK5 CDK5R1 p35 (human),97.4%
same,residual activity,MAPK11 (human),101%
Cc1nc(-c2ccccc2)c(-c2ccncc2)o1,residual activity,STK17A (human),99.5%
same,residual activity,AURKA (human),91.2%
same,residual activity,EPHA7 (human),91.5%
same,residual activity,NEK3 (human),93.7%
same,residual activity,MARK4 (human),103%
same,residual activity,MYLK2 (human),100%
same,residual activity,SRPK3 (human),103%
same,residual activity,EPHB1 (human),107%
same,residual activity,STK16 (human),109%
same,residual activity,PKN2 (human),93.4%
same,residual activity,INSR (human),85.6%
same,residual activity,IKBKB (human),105%
same,residual activity,DMPK (human),103%
same,residual activity,ADRBK1 (human),100%
same,residual activity,NEK11 (human),76.7%
same,residual activity,BMX (human),102%
same,residual activity,CDK9 CCNK (human),101%
same,residual activity,EPHB3 (human),99.2%
same,residual activity,PDGFRB (human),109%
same,residual activity,DYRK1B (human),98.9%
same,residual activity,MAPK1 (human),90.3%
same,residual activity,FER (human),84.9%
same,residual activity,HIPK3 (human),107%
same,residual activity,[1],123%
same,residual activity,CDK5 CDK5R1 p25 (human),97%
same,residual activity,CSNK1G3 (human),104%
same,residual activity,SGK3 (human),96.4%
same,residual activity,OXSR1 (human),102%
same,residual activity,YES1 (human),101%
same,residual activity,ABL2 (human),92.8%
same,residual activity,DCLK2 (human),97%
same,residual activity,MAP3K9 (human),79.4%
same,residual activity,ACVR1 (human),104%
same,residual activity,CLK1 (human),105%
same,residual activity,BRSK1 (human),99.8%
same,residual activity,PRKD3 (human),94.3%
same,residual activity,STK4 (human),104%
same,residual activity,SIK2 (human),86.2%
same,residual activity,PRKD2 (human),97.7%
same,residual activity,MET (human),102%
same,residual activity,CDK5 CDK5R1 p35 (human),104%
same,residual activity,MAPK11 (human),101%
